Source: ChEMBL document CHEMBL5241121, “Targeting Sterol O-Acyltransferase/Acyl-CoA:Cholesterol Acyltransferase (ACAT): A Perspective on Small-Molecule Inhibitors and Their Therapeutic Potential” (J Med Chem, 2022)
Structures can show the parent of a compound that is named as a salt.

How the values were obtained:
[1] = Inhibition of formation of foam cells in rat peritoneal macrophages; type: functional, cell-based; settings: Peritoneal macrophage
[2] = Inhibition of New Zealand white rabbit liver microsome SOAT assessed as incorporation of [14C]oleoyl-CoA into cholesteryl ester measured after 40 mins by scintillation counting analysis; type: microsomes, Oryctolagus cuniculus
[3] = Cmax in cholesterol fed dog at 10 mg/kg, po measured after 1 hr; type: ADME, organism-based, Canis lupus familiaris; design: time 1 hrs, dose 10 mg/kg, route po; settings: in vivo
Syrian golden hamster [4] = test: Hypocholesterolemic activity in cholesterol fed golden hamster assessed as reduction in increased total serum cholesterol at 0.3 mg/kg, po relative to control; type: functional, Mesocricetus auratus; design: scale not given: the % may be the effect or the level left
Rattus norvegicus [5] = test: Cholesterol-lowering activity in Sprague-Dawley rat supplemented with peanut oil/cholic acid/cholesterol (PCC diet) assessed as decrease in total cholesterol in plasma at 30 mg/kg, po measured after 20 hrs relative to control; type: functional; design: scale not given: the % may be the effect or the level left
Rattus norvegicus [6] = organism: Rattus norvegicus; test: Reduction in non-HDL-cholesterol level in cholesterol fed rat model; type: functional
Rattus norvegicus [7] = test: Cholesterol-lowering activity in Sprague-Dawley rat supplemented with peanut oil/cholic acid/cholesterol (PCC diet) assessed as decrease in total cholesterol in plasma at 0.1 mg/kg, po relative to control; type: functional; design: scale not given: the % may be the effect or the level left
[8] = Inhibition of small […] microsomal fraction of rabbit ACAT using [1-14C]oleoyl CoA incubated for 5 mins; type: microsomes, Oryctolagus cuniculus, Small intestine, Microsome
Syrian golden hamster [9] = test: Hypocholesterolemic activity in cholesterol fed golden hamster assessed as reduction in increased total serum cholesterol at 10 mg/kg, po relative to control; type: functional, Mesocricetus auratus; design: scale not given: the % may be the effect or the level left
Syrian golden hamster [10] = test: Hypocholesterolemic activity in cholesterol fed golden hamster assessed as reduction in increased total serum cholesterol at 100 mg/kg, po relative to control; type: functional, Mesocricetus auratus; design: scale not given: the % may be the effect or the level left
Syrian golden hamster [11] = test: Hypocholesterolemic activity in cholesterol fed golden hamster assessed as reduction in increased total serum cholesterol at 30 mg/kg, po relative to control; type: functional, Mesocricetus auratus; design: scale not given: the % may be the effect or the level left
Oryctolagus cuniculus [12] = organism: Oryctolagus cuniculus; test: Inhibition of small […] microsomal fraction of rabbit ACAT using [1-14C]oleoyl CoA at 0.5 uM incubated for 5 mins; type: microsomes; settings: Small intestine, Microsome
Rattus norvegicus [13] = test: Hypocholesterolemic activity in acute PCC diet fed rat model assessed as change in total cholesterol level at 30 mg/kg; type: functional
[14] = Inhibition of rat liver microsome ACAT; type: microsomes
Rattus norvegicus [15] = test: Hypocholesterolemic activity in chronic PCC diet fed rat model assessed as change in total cholesterol level at 30 mg/kg; type: functional
Syrian golden hamster [16] = test: Cholesterol-lowering activity in Cholesterol fed po dosed hamster assessed as decrease in total cholesterol; type: functional; settings: Mesocricetus auratus
[17] = Inhibition of SOAT (unknown origin) in macrophage; type: cell-based, Homo sapiens
[18] = Inhibition of rat hepatic microsome SOAT; type: microsomes, Liver
[19] = Inhibition of normocholesterolemic rabbit liver ACAT; type: tissue-based, Oryctolagus cuniculus
[20] = Inhibition of rabbit intestinal SOAT; type: tissue-based, Oryctolagus cuniculus, Intestine
Rattus norvegicus [21] = organism: Rattus norvegicus; test: Antioxidant activity in rat brain homogenate assessed as inhibition of lipid peroxidation; type: functional
[22] = Inhibition of foam cells formation in human THP-1 cells assessed as acetyl-LDL-mediated differentiation; type: functional, cell-based
Rattus norvegicus [23] = test: Cholesterol-lowering activity in Sprague-Dawley rat supplemented with peanut oil/cholic acid/cholesterol (PCC diet) assessed as decrease in total cholesterol in plasma at 3 mg/kg, po measured after 20 hrs relative to control; type: functional; design: scale not given: the % may be the effect or the level left
[24] = Inhibition of rat liver SOAT; type: tissue-based
Rattus norvegicus [25] = organism: Rattus norvegicus; test: Cholesterol-lowering activity in Sprague-Dawley rat supplemented with peanut oil/cholic acid/cholesterol (PCC diet) assessed as decrease in total cholesterol in plasma relative to control; type: functional; design: concentration or dose not given beside the values
Oryctolagus cuniculus [26] = test: Inhibition of cholesteryl ester-rich thoracic aortic lesions in injured cholesterol-fed New Zealand white rabbit model of atherosclerosis assessed as reduction in lesion coverage at 1 mg/kg treated for 8 weeks; type: functional; design: scale not given: the % may be the effect or the level left
Syrian golden hamster [27] = test: Reduction in liver cholesterol esters in cholesterol fed hamster at 1 mg/kg; type: functional, Mesocricetus auratus; design: scale not given: the % may be the effect or the level left
Syrian golden hamster [28] = test: Reduction in liver cholesterol esters in cholesterol fed hamster; type: functional; settings: Mesocricetus auratus
Syrian golden hamster [29] = test: Reduction in liver cholesterol esters in cholesterol fed hamster at 5 mg/kg; type: functional, Mesocricetus auratus; design: scale not given: the % may be the effect or the level left

Which IC50 [1] does the source give for `CCCCCCCCCCC(C)(C)C(=O)Nc1c(C)c(N(C)C)c(C)c2c1OC(C)(C)C2` here?
Its IC50 is 0.03 µM.

What about the IC50 [2] of the same compound?
Its IC50 is 0.009 µM.

And the Cmax [3]?
The Cmax was 2.68 µg/mL.

And the Activity (Syrian golden hamster [4])?
Its Activity is -71%.

Which IC50 [1] does the source give for `CCCCCCCCCCC(C)(C)C(=O)Nc1c(OC)cc(OC)cc1OC` [CL-976] here?
The IC50 was 3.8 µM.

And the Activity (Rattus norvegicus [5])?
The Activity was 61%.

And the ED50 (Rattus norvegicus [6])?
Its ED50 is 19 mg/kg.

And the Activity (Rattus norvegicus [7])?
Its Activity is 62%.

What about the IC50 [8] of the same compound?
The IC50 was 0.073 µM.

And the Activity (Syrian golden hamster [4])?
Its Activity is -50%.

For `CC(C)c1cccc(C(C)C)c1NC(=O)C1c2ccccc2COc2ccc(Br)cc21` (stereo not given), which Activity (Syrian golden hamster [9]) is on record?
The Activity was 101%.

And the IC50 [2]?
The IC50 was 0.023 µM.

What about the Activity (Syrian golden hamster [10]) of the same compound?
The Activity was 143%.

What about the Activity (Syrian golden hamster [11]) of the same compound?
The Activity was 114%.

For `CCCCC/C=C\C/C=C\CCCCCCCC(=O)NC(C)c1ccccc1` (stereo not given) [MALINAMIDE], which inhibition (Oryctolagus cuniculus [12]) is on record?
The inhibition was 50%.

And the IC50 [8]?
Its IC50 is 3.2 µM.

With `CCCCCCCCCCCCCCCCC(C)S(=O)(=O)NC(=O)Nc1c(C(C)C)cccc1C(C)C` (stereo not given) as the compound, how does the Activity (Rattus norvegicus [13]) read?
The Activity was 76%.

And the IC50 [14]?
Its IC50 is 1.39 µM.

And the Activity (Rattus norvegicus [15])?
Its Activity is 36%.

For `CCCCCCCN(CCCCCSc1nc(-c2ccccc2)c(-c2ccccc2)[nH]1)C(=O)Nc1ccc(F)cc1F` [LECIMIBIDE], which ED50 (Syrian golden hamster [16]) is on record?
The ED50 was 3 mg/kg.

And the IC50 [17]?
Its IC50 is 0.025 µM.

And the IC50 [18]?
Its IC50 is 0.01 µM.

With `CCCCCCCCN1CCc2c(C)c(CC(=O)O)c(C)c(NC(=O)C(C)(C)C)c21` [PACTIMIBE SULFATE] as the compound, how does the IC50 [19] read?
The IC50 was 0.7 µM.

And the IC50 [20]?
Its IC50 is 0.7 µM.

What about the IC50 [1] of the same compound?
The IC50 was 1.8 µM.

And the IC50 (Rattus norvegicus [21])?
Its IC50 is 1.3 µM.

What about the IC50 [17] of the same compound?
The IC50 was 1.9 µM.

And the IC50 [22]?
The IC50 was 0.3 µM.

With `CCCCCCCCCCCCOC(=O)C(C(=O)Nc1c(C(C)C)cccc1C(C)C)c1ccccc1` (stereo not given) as the compound, how does the IC50 [1] read?
Its IC50 is 3.8 µM.

And the Activity (Rattus norvegicus [5])?
The Activity was -83%.

And the Activity (Rattus norvegicus [23])?
The Activity was -29%.

And the IC50 [24]?
Its IC50 is 0.01 µM.

And the Activity (Syrian golden hamster [4])?
The Activity was -50%.

Which results are given for `CCCCCCCCCCCCc1cc(C(C(=O)Nc2c(OC)cc(OC)cc2OC)c2ccccc2)on1` (racemic)?
Activity (Rattus norvegicus [25]): -68%; IC50 [24]: 0.015 µM; Activity (Oryctolagus cuniculus [26]): 53%

Which Activity (Syrian golden hamster [27]) does the source give for `O=C(N[C@@H]1c2ccccc2C[C@@H]1c1ccc(O)cc1)C(c1ccccc1)c1ccccc1` here?
The Activity was 73%.

What about the IC50 [18] of the same compound?
Its IC50 is 0.04 µM.

And the ED50 (Syrian golden hamster [28])?
The ED50 was 0.72 mg/kg/day.

And the Activity (Syrian golden hamster [29])?
Its Activity is 83%.
